Test results from patent publication US5905068A, “Retroviral protease inhibiting compounds” (Abbott Laboratories, priority 1996, dated 1999).

Assays:
HIVIIIB = experiment: Antiviral Activity: anti-HIV activity in MT4 cells infected with HIVIIIB (MTT); assay type: cell-based; conditions: MOI 0.003, 5 days, n=four duplicate determinations
Procedure, shortened: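 MT4 cells infected 1 h with HIVIIIB at 0.003 MOI, washed, seeded at 1×10^4 cells/well with half-log compound dilutions in RPMI 1640 plus 10% FBS and added human serum (final 60%, 35% or 22.5% total serum), 5 days at 37 °C. Viability read by MTT at 570/650 nm; EC50 by median effect equation, CTC50 on uninfected MT4 cells.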

uninfected MT4 cells = experiment: Cytotoxicity in uninfected MT4 cells (MTT); assay type: cell-based; conditions: 5 days, n=four duplicate determinations, read-out: CTC50 (50% cytotoxicity concentration)
Procedure, shortened: (§1)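 Uninfected MT4 cells, 1×10^4 per well, incubated 5 days at 37 °C with half-log compound dilutions. Viability read by MTT-type OD at 570/650 nm after SDS/HCl lysis overnight. CTC50 taken as 50% cytotoxicity concentration.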

HIV-1 protease = HIV-1 protease (Human immunodeficiency virus type 1 group M subtype B, UniProt P04585); experiment: Fluorogenic Assay for Screening Inhibitors of HIV Protease
[1] = Cytotoxicity in uninfected MT4 cells (MTT); assay type: cell-based; conditions: human, 5 days, n=four duplicate determinations, read-out: CTC50 (50% cytotoxicity concentration)
Procedure, shortened: as §1

[2] = Effect of ritonavir on pharmacokinetics of the co-administered compound of this invention; assay type: in vivo; conditions: ritonavir in combination with a compound of this invention
[3] = Human immunodeficiency virus 1, 120 h

| SMILES | EC50 (HIVIIIB; [3]) | CC50 at 120 h [1] | inhibition at 0.0005 µM (HIV-1 protease; pH 4.5) | also measured |
| --- | --- | --- | --- | --- |
| Cc1ccc(OCC(=O)N[C@@H](Cc2ccccc2)C[C@H](O)[C@H](Cc2ccccc2)NC(=O)O[C@H]2CO[C@H]3OCC[C@H]32)c(C)n1 [Example 10, (2S,3S,5S)-5-(2,6-Dimethyl-pyridin-3-yl-oxyacetyl)amino-2-((3R,3aS,6aR)-bis-tetrahydrofuran-3-yl-oxycarbonyl)amino-1,6-diphenyl-3-hydroxyhexane] |  |  |  | EC50 (HIVIIIB): 184 nM; CC50 (uninfected MT4 cells): > 100000 nM; % Inhibition (HIV-1 protease; 0.5 nM inhibitor, pH 4.5, 30° C.): 49% |
| O=C(N[C@@H](Cc1ccccc1)[C@@H](O)C[C@H](Cc1ccccc1)NC(=O)c1ccc(O)cc1Cl)O[C@H]1CO[C@H]2OCC[C@H]21 [Example 57, (2S,3S,5S)-5-(2-Chloro-4-hydroxy-benzoyl)amino-2-((3R,3aS,6aR)-bis-tetrahydrofuran-3-yl-oxycarbonyl)amino-1,6-diphenyl-3-hydroxyhexane] | 120 nM | 80900 nM | 78% |  |
| O=C(N[C@@H](Cc1ccccc1)[C@@H](O)C[C@H](Cc1ccccc1)NC(=O)c1cccc(O)c1)O[C@@H]1CO[C@@H]2OCC[C@@H]21 [Example 58, (2S,3S,5S)-5-(3-Hydroxy-benzoyl)amino-2-((3S,3aR,6aS)-bis-tetrahydrofuran-3-yl-oxycarbonyl)amino-1,6-diphenyl-3-hydroxyhexane] | 2610 nM | > 100000 nM |  | inhibition at 0.0011 µM (HIV-1 protease; pH 4.5): 50% |
| Cc1c(O)cccc1C(=O)N[C@@H](Cc1ccccc1)[C@@H](O)C[C@H](Cc1ccccc1)NC(=O)O[C@H]1CO[C@H]2OCC[C@H]21 [Example 59, (2S,3S,5S)-2-(3-Hydroxy-2-methyl-benzoyl)amino-5-((3R,3aS,6aR)-bis-tetrahydrofuran-3-yl-oxycarbonyl)amino-1,6-diphenyl-3-hydroxyhexane] | 153 nM | > 100000 nM | 67% |  |
| Cc1c(O)cccc1C(=O)N[C@@H](Cc1ccccc1)[C@@H](O)C[C@H](Cc1ccccc1)NC(=O)O[C@@H]1CO[C@@H]2OCC[C@@H]21 [Example 60, (2S,3S,5S)-2-(3-Hydroxy-2-methyl-benzoyl)amino-5-((3S,3aR,6aS)-bis-tetrahydrofuran-3-yl-oxycarbonyl)amino-1,6-diphenyl-3-hydroxyhexane] | 1120 nM | > 100000 nM |  | inhibition at 0.0022 µM (HIV-1 protease; pH 4.5): 50% |
| Nc1ccc(Cl)c(C(=O)N[C@@H](Cc2ccccc2)[C@@H](O)C[C@H](Cc2ccccc2)NC(=O)O[C@H]2CO[C@H]3OCC[C@H]32)c1 [Example 62, (2S,3S,5S)-2-(3-Amino-6-chloro-benzoyl)amino-5-((3R,3aS,6aR)-bis-tetrahydrofuran-3-yl-oxycarbonyl)amino-1,6-diphenyl-3-hydroxyhexane] | 81 nM | > 100000 nM | 70% |  |
| Nc1ccc(Cl)c(C(=O)N[C@@H](Cc2ccccc2)[C@@H](O)C[C@H](Cc2ccccc2)NC(=O)O[C@@H]2CO[C@@H]3OCC[C@@H]32)c1 [Example 63, (2S,3S,5S)-2-(3-Amino-6-chloro-benzoyl)amino-5-((3S,3aR,6aS)-bis-tetrahydrofuran-3-yl-oxycarbonyl)amino-1,6-diphenyl-3-hydroxyhexane] | 1560 nM | > 100000 nM |  | inhibition at 0.0029 µM (HIV-1 protease; pH 4.5): 50% |
| O=C(N[C@@H](Cc1ccccc1)C[C@H](O)[C@H](Cc1ccccc1)NC(=O)c1ccc(O)cc1)O[C@H]1CO[C@H]2OCC[C@H]21 [Example 64, (2S,3S,5S)-2-(4-Hydroxy-benzoyl)amino-5-((3R,3aS,6aR)-bis-tetrahydrofuran-3-yl-oxycarbonyl)amino-1,6-diphenyl-3-hydroxyhexane] | 200 nM | > 100000 nM | 64% |  |
| O=C(N[C@@H](Cc1ccccc1)C[C@H](O)[C@H](Cc1ccccc1)NC(=O)c1ccccc1)O[C@H]1CO[C@H]2OCC[C@H]21 [Example 68, (2S,3S,5S)-2-(Benzoyl)amino-5-((3R,3aS,6aR)-bis-tetrahydrofuran-3-yl-oxycarbonyl)amino-1,6-diphenyl-3-hydroxyhexane] | 233 nM | > 32000 nM | 65% |  |
| Nc1ccc(C(=O)N[C@@H](Cc2ccccc2)[C@@H](O)C[C@H](Cc2ccccc2)NC(=O)O[C@H]2CO[C@H]3OCC[C@H]32)c(Cl)c1 [Example 71, (2S,3S,5S)-2-(4-Amino-2-chloro-benzoyl)amino-5-((3R,3aS,6aR)-bis-tetrahydrofuran-3-yl-oxycarbonyl)amino-1,6-diphenyl-3-hydroxyhexane] | 101 nM | > 100000 nM | 72% |  |
| Cc1ccc(O)c(C)c1OCC(=O)N[C@@H](Cc1ccccc1)C[C@H](O)[C@H](Cc1ccccc1)NC(=O)O[C@H]1CO[C@H]2OCC[C@H]21 [Example 74, (2S,3S,5S)-5-(2,6-Dimethyl-3-hydroxy-phenoxyacetyl)amino-2-((3R,3aS,6aR)-bis-tetrahydrofuran-3-yl-oxycarbonyl)amino-1,6-diphenyl-3-hydroxyhexane] | 7 nM | 50500 nM | 89% |  |
| CC(C)c1nc(CN(C)C(=O)N[C@H](C(=O)N[C@@H](Cc2ccccc2)C[C@H](O)[C@H](Cc2ccccc2)NC(=O)OCc2cncs2)C(C)C)cs1 [ritonavir] |  |  |  | blood levels of the co-administered compound of this invention [2]: increases blood levels; half-life of the co-administered compound of this invention [2]: increases half-life; time to peak plasma concentration of the co-administered compound of this invention [2]: increases the time to peak plasma concentration |
